Data taken from patent US11795223B2, “Combination therapies for treating myelodysplastic syndromes and acute myeloid leukemia” (Forty Seven, Inc., priority 2019, dated 2023).

How the values were obtained:
MDS = details: cited from earlier work
[1] = Phase 1 trials of Hu5F9-G4 monotherapy; format: in vivo; details: Phase 1 trial
human AML = test: nonclinical xenograft models of human AML; format: in vivo; details: mice
[2] = pivotal randomized trial leading to azacitidine approval in MDS

| Compound | known CR rate (MDS; azacitidine alone) [%] | CR+PR rate, point estimate (MDS; [2]) [%] | CR+PR rate, upper bound of the 1-sided 95% confidence interval (MDS; [2]) [%] | maximum tolerated dose (MTD) [1] | tolerability [1] | leukemic disease in the peripheral blood and bone marrow (human AML) |
| --- | --- | --- | --- | --- | --- | --- |
| Nc1ncn([C@@H]2O[C@H](CO)[C@@H](O)[C@H]2O)c(=O)n1 [azacitidine] | 17.85 | 15.7 | 23.5 | – | – | – |
| Hu5F9-G4: humanized IgG4 kappa monoclonal antibody targeting human CD47; heavy chain SEQ ID NO: 50, light chain SEQ ID NO: 51 | – | – | – | has not been reached | well tolerated | robust elimination of leukemic disease in the peripheral blood and bone marrow which results in long term remissions in a high percentage of mice treated |
